Measured values taken from publication PMC11931052, “Efficacy of dispirotripiperazine PDSTP in a golden Syrian hamster model of SARS-CoV-2 infection” (Frontiers in Microbiology, 2025).

What was measured:
[1] = tested on: SARS-CoV-2 ancestral PV10734 strain; experiment: Yield reduction assay in Calu-3 cells, SARS-CoV-2 ancestral PV10734 strain; assay type: cell-based; conditions: PDSTP 20 and 4 μM, day 3 post-infection, p < 0.0001
[2] = Reproductive toxicity: generative function of sexually mature animals; assay type: in vivo, white laboratory rats; conditions: 10% solution topically on 5% of body surface area for 25 days
Text: PDSTP doses tested: 10% solution
Test subjects: white laboratory rats of both sexes
The drug was applied topically on 5% of body surface area (3x5 cm area) for 25 days.

[3] = tested on: bone marrow, liver, kidney and spleen cells; experiment: DNA damage accounting test (DNA Comet); assay type: in vivo, F1 hybrids of SWAxC57BL/6 mice; conditions: 400 mg/kg and 1000 mg/kg topically
Method: PDSTP doses tested: 400 mg/kg and 1000 mg/kg
Test subjects: F1 hybrids of SWAxC57BL/6 mice.
Method of administration: topically.

## Cc1nc(N2CC[N+]3(CC2)CC[N+]2(CCNCC2)CC3)c([N+](=O)[O-])c(N2CC[N+]3(CC2)CC[N+]2(CCNCC2)CC3)n1.Cl.Cl.O.O.O.O.O.O.O.O.O.[Cl-].[Cl-].[Cl-].[Cl-] [PDSTP, 3,3′-(2-methyl-5-nitropyrimidine-4,6-diyl)bis-3,12-diaza-6,9-diazonia-dispiro[5.2.5.2]hexadecane tetrachloride dihydrochloride nonahydrate]
[1]
  Reduction of viral titer: ~100 fold
[2]
  Effect on generative function of sexually mature animals: no pathological effect
[3]
  Induction of DNA damage (DNA Comet): does not induce DNA damage
